Experimental data from patent US4261989A, “Geldanamycin derivatives and antitumor drug” (Kaken Chemical Co. Ltd., priority 1979, dated 1981).

What follows are compounds tested on cancer cell W-2K-11 (assay: Growth inhibition of cancer cell W-2K-11 (percent inhibition of cell multiplication, Table 2)). Settings: Mus musculus, 48 h, read-out: Percent inhibition (%).
Type: cell-based, mouse
Experimental: Cancer cell W-2K-11 was obtained by transforming fibroblast C3H-2K clone derived from kidney of mouse by cancerogenic virus. The cancer cell W-2K-11 was cultured by the following method.
(1) Preparation of culture medium
9.4 Gram of Eagle's MEM culture media (manufactured by Nissui Seiyaku K. K.) was dissolved in 900 ml. of distilled water and the solution was sterilized under high pressure at 120° C. for 15 minutes and cooled. 100 Ml. of calf serum and 3-5 ml. of 10% aqueous solution of sodium bicarbonate were added to the solution to adjust pH to 7.1-7.2. 10 Ml. of an aqueous solution of L-glutamine (2.92 g./100 ml.) filtered by a millipore filter was added just before the use of the solution as culture medium.
(2) Preparation of transplanted cell solution
The cancer cell W-2K-11 stored in a freezer at -80° C. was melted at room temperature and treated by a centrifugal separator at 670 g. for 5 minutes. The precipitated cell was dispersed in 50 ml. of the culture medium (1). The suspension was charged into Roux flask and cultured at 37° C. The multiplication of the cells was initiated and accomplished after 3 to 4 days. The cultured mixture was decanted and 10 ml. of 0.2% trypsin solution was added and the mixture was kept at room temperature for 2 to 3 minutes and the trypsin mixture was decanted and then, 50 ml. of the culture medium (1) was added to prepare a suspension of cells.
(3) Incubation of cells and addition of sample
1.8 Ml. of the suspension of cells (2) was charged into each Petri dish and incubated in a carbon dioxide gas incubator (5% of CO2; 95% of air) at 37° C. Twenty four hours after the initiation of the incubation, 0.2 ml. of each ethanol solution of each sample was added, and the incubation was continued. Forty eight hours after the addition of the sample, numbers of survival cells were counted under a microscopic observation and each percent inhibition of cell multiplication was calculated. [formula]
For `CCCCCCCCCCNC1=C2CC(C)CC(OC)C(O)C(C)/C=C(\C)C(OC(N)=O)C(OC)/C=C\C=C(/C)C(=O)NC(=CC1=O)C2=O` (centres unmarked) [Example 10], the inhibition at 10 µg/mL was 48%. With `COC1/C=C\C=C(/C)C(=O)NC2=CC(=O)C(NCCCl)=C(CC(C)CC(OC)C(O)C(C)/C=C(\C)C1OC(N)=O)C2=O` (centres unmarked) [Example 20] the inhibition at 1 µg/mL was 98%. For `CNC(=O)OC1C(C)=CC(C)C(O)C(OC)CC(C)CC2=C(OC)C(=O)C=C(N=C(OC)C(C)=CC=CC1OC)C2=O` (centres unmarked) [Example 44, 1-O-methyl-7-OCONH-methyl-Geldanamycin], the inhibition at 1 µg/mL was 94% and the inhibition at 10 µg/mL was 80%. With `COC1/C=C\C=C(/C)C(=O)NC2=CC(=O)C(NCC(C)C)=C(CC(C)CC(OC)C(O)C(C)/C=C(\C)C1OC(N)=O)C2=O` (centres unmarked) [Example 12] the inhibition at 1 µg/mL was 90%. Work on `COC1=C2CC(C)CC(OC)C(O)C(C)C=C(C)C(OC(N)=O)C(OC)C=CC=C(C)C(=O)NC(=C(I)C1=O)C2=O` (centres unmarked) [Example 38, 19-iodo-Geldanamycin] yielded an inhibition at 5 µg/mL of 95%. With `COC1C=CC=C(C)C(=O)NC2=CC(=O)C(NCc3ccncc3)=C(CC(C)CC(OC)C(O)C(C)C=C(C)C1OC(N)=O)C2=O` (centres unmarked) [Example 30] the inhibition at 5 µg/mL was 95%. In the case of `COC1C=CC=C(C)C(=O)NC2=CC(=O)C(NCCc3ccccn3)=C(CC(C)CC(OC)C(O)C(C)C=C(C)C1OC(N)=O)C2=O` (centres unmarked) [Example 31], the inhibition at 5 µg/mL is reported as 93%. `CCCCCNC1=C2CC(C)CC(OC)C(O)C(C)/C=C(\C)C(OC(N)=O)C(OC)/C=C\C=C(/C)C(=O)NC(=CC1=O)C2=O` (centres unmarked) [Example 6] was tested, and the inhibition at 1 µg/mL was 90%. `COC1/C=C\C=C(/C)C(=O)NC2=CC(=O)C(N3CC3)=C(CC(C)CC(OC)C(O)C(C)/C=C(\C)C1OC(N)=O)C2=O` (centres unmarked) [Example 2, 17-ethyleneimino-Geldenamycin] showed an inhibition at 1 µg/mL of 97%.

Same assay, conditions: Mus musculus; concentration 0.5 μg/ml; 48 hours after addition of sample; W-2K-11 cells
With `COCCNC1=C2CC(C)CC(OC)C(O)C(C)C=C(C)C(OC(N)=O)C(OC)C=CC=C(C)C(=O)NC(=CC1=O)C2=O` (centres unmarked) [Example 33] the inhibition at 0.5 µg/mL was 95%.

Same assay, conditions: Mus musculus; concentration 1 μg/ml; 48 hours after addition of sample; W-2K-11 cells; read-out: Percent inhibition (%)
With `CCCCCCNC1=C2CC(C)CC(OC)C(O)C(C)/C=C(\C)C(OC(N)=O)C(OC)/C=C\C=C(/C)C(=O)NC(=CC1=O)C2=O` (centres unmarked) [Example 7] the inhibition at 1 µg/mL was 90%. `COC1/C=C\C=C(/C)C(=O)NC2=CC(=O)C(NC3CCCCC3)=C(CC(C)CC(OC)C(O)C(C)/C=C(\C)C1OC(N)=O)C2=O` (centres unmarked) [Example 15] showed an inhibition at 1 µg/mL of 98%. `CNC(=O)OC1C(C)=CC(C)C(O)C(OC)CC(C)CC2=C(OC)C(=O)C=C(C2=O)N(C)C(=O)C(C)=CC=CC1OC` (centres unmarked) [Example 42, 21-N-methyl-7-OCONH-methyl-Geldanamycin] gave an inhibition at 1 µg/mL of 82%. For `COC1/C=C\C=C(/C)C(=O)NC2=CC(=O)C(NC3CC3)=C(CC(C)CC(OC)C(O)C(C)/C=C(\C)C1OC(N)=O)C2=O` (centres unmarked) [Example 13], the inhibition at 1 µg/mL was 94%. `C=CCNC1=C2CC(C)CC(OC)C(O)C(C)/C=C(\C)C(OC(N)=O)C(OC)/C=C\C=C(/C)C(=O)NC(=CC1=O)C2=O` (centres unmarked) [Example 22] showed an inhibition at 1 µg/mL of 93%. In the case of `CCCCNC1=C2CC(C)CC(OC)C(O)C(C)/C=C(\C)C(OC(N)=O)C(OC)/C=C\C=C(/C)C(=O)NC(=CC1=O)C2=O` (centres unmarked) [Example 5], the inhibition at 1 µg/mL is reported as 85%. With `COC1=NC2=CC(=O)C(OC)=C(CC(C)CC(OC)C(O)C(C)C=C(C)C(OC(N)=O)C(OC)C=CC=C1C)C2=O` (centres unmarked) [Example 40, 1-O-methyl-Geldanamycin] the inhibition at 1 µg/mL was 80%. With `CCCCCCCNC1=C2CC(C)CC(OC)C(O)C(C)/C=C(\C)C(OC(N)=O)C(OC)/C=C\C=C(/C)C(=O)NC(=CC1=O)C2=O` (centres unmarked) [Example 8] the inhibition at 1 µg/mL was 96%. Compound `COC1C=CC=C(C)C(=O)NC2=CC(=O)C(NCc3ccccc3)=C(CC(C)CC(OC)C(O)C(C)C=C(C)C1OC(N)=O)C2=O` (centres unmarked) [Example 23] has an inhibition at 1 µg/mL of 88%. With `COC1C=CC=C(C)C(=O)NC2=CC(=O)C(NCCc3ccccc3)=C(CC(C)CC(OC)C(O)C(C)C=C(C)C1OC(N)=O)C2=O` (centres unmarked) [Example 24] the inhibition at 1 µg/mL was 82%. `CNC(=O)OC1C(C)=CC(C)C(O)C(OC)CC(C)CC2=C(OC)C(=O)C=C(NC(=O)C(C)=CC=CC1OC)C2=O` (centres unmarked) [Example 43, 7-OCONH-methyl Geldanamycin] was tested, and the inhibition at 1 µg/mL was 60%. Compound `CCCNC1=C2CC(C)CC(OC)C(O)C(C)/C=C(\C)C(OC(N)=O)C(OC)/C=C\C=C(/C)C(=O)NC(=CC1=O)C2=O` (centres unmarked) [Example 1, 17-n-propylamino-Geldanamycin] has an inhibition at 1 µg/mL of 92%. For `COC1/C=C\C=C(/C)C(=O)NC2=CC(=O)C(NC3CCCC3)=C(CC(C)CC(OC)C(O)C(C)/C=C(\C)C1OC(N)=O)C2=O` (centres unmarked) [Example 14], the inhibition at 1 µg/mL was 98%.

Same assay, conditions: Mus musculus; concentration 5 μg/ml; 48 hours after addition of sample; W-2K-11 cells; read-out: Percent inhibition (%)
Work on `COC1=C2CC(C)CC(OC)C(O)C(C)C=C(C)C(OC(N)=O)C(OC)C=CC=C(C)C(=O)NC(=C(Br)C1=O)C2=O` (centres unmarked) [Example 37, 19-bromo-Geldanamycin] yielded an inhibition at 5 µg/mL of 84%. In the case of `COC1C=CC=C(C)C(=O)NC2=CC(=O)C(NCCN3CCOCC3)=C(CC(C)CC(OC)C(O)C(C)C=C(C)C1OC(N)=O)C2=O` (centres unmarked) [Example 26], the inhibition at 5 µg/mL is reported as 93%. For `COC1=C2CC(C)CC(OC)C(O)C(C)C=C(C)C(OC(N)=O)C(OC)C=CC=C(C)C(=O)NC(=C(Cl)C1=O)C2=O` (centres unmarked) [Example 39, 19-chloro-Geldanamycin], the inhibition at 5 µg/mL was 91%. `CNCCNC1=C2CC(C)CC(OC)C(O)C(C)C=C(C)C(OC(N)=O)C(OC)C=CC=C(C)C(=O)NC(=CC1=O)C2=O` (centres unmarked) [Example 34] was tested, and the inhibition at 5 µg/mL was 67%. For `COC1/C=C\C=C(/C)C(=O)NC2=CC(=O)C(NCCN)=C(CC(C)CC(OC)C(O)C(C)/C=C(\C)C1OC(N)=O)C2=O` (centres unmarked) [Example 4], the inhibition at 5 µg/mL was 57%. `COC1C=CC=C(C)C(=O)NC2=CC(=O)C(NCc3ccccn3)=C(CC(C)CC(OC)C(O)C(C)C=C(C)C1OC(N)=O)C2=O` (centres unmarked) [Example 28] was tested, and the inhibition at 5 µg/mL was 90%. For `COC1C=CC=C(C)C(=O)NC2=CC(=O)C(NCc3cccnc3)=C(CC(C)CC(OC)C(O)C(C)C=C(C)C1OC(N)=O)C2=O` (centres unmarked) [Example 29], the inhibition at 5 µg/mL was 92%.

Same assay, conditions: Mus musculus; concentration 10 μg/ml; 48 hours after addition of sample; W-2K-11 cells; read-out: Percent inhibition (%)
`CNC(=O)OC1C(C)=CC(C)C(O)C(OC)CC(C)CC2=C(OC)C(=O)C=C(C2=O)N(C)C(=O)C(C)=CC=CC1OC` (centres unmarked) [Example 42, 21-N-methyl-7-OCONH-methyl-Geldanamycin] showed an inhibition at 10 µg/mL of 94%. For `COC1C=CC=C(C)C(=O)NC2=CC(=O)C(N3CCCC3)=C(CC(C)CC(OC)C(O)C(C)C=C(C)C1OC(N)=O)C2=O` (centres unmarked) [Example 25], the inhibition at 10 µg/mL was 97%. `COC1/C=C\C=C(/C)C(=O)NC2=CC(=O)C(NCCOCCO)=C(CC(C)CC(OC)C(O)C(C)/C=C(\C)C1OC(N)=O)C2=O` (centres unmarked) [Example 19] was tested, and the inhibition at 10 µg/mL was 88%. In the case of `CCCCCCCCNC1=C2CC(C)CC(OC)C(O)C(C)/C=C(\C)C(OC(N)=O)C(OC)/C=C\C=C(/C)C(=O)NC(=CC1=O)C2=O` (centres unmarked) [Example 9], the inhibition at 10 µg/mL is reported as 67%. `COC1/C=C\C=C(/C)C(=O)NC2=CC(=O)C(NC3CCCCCC3)=C(CC(C)CC(OC)C(O)C(C)/C=C(\C)C1OC(N)=O)C2=O` (centres unmarked) [Example 16] was tested, and the inhibition at 10 µg/mL was 98%. With `COC1=NC2=CC(=O)C(OC)=C(CC(C)CC(OC)C(O)C(C)C=C(C)C(OC(N)=O)C(OC)C=CC=C1C)C2=O` (centres unmarked) [Example 40, 1-O-methyl-Geldanamycin] the inhibition at 10 µg/mL was 95%. `CNC(=O)OC1C(C)=CC(C)C(O)C(OC)CC(C)CC2=C(OC)C(=O)C=C(NC(=O)C(C)=CC=CC1OC)C2=O` (centres unmarked) [Example 43, 7-OCONH-methyl Geldanamycin] showed an inhibition at 10 µg/mL of 96%. `CCCCCCCCCCCCNC1=C2CC(C)CC(OC)C(O)C(C)/C=C(\C)C(OC(N)=O)C(OC)/C=C\C=C(/C)C(=O)NC(=CC1=O)C2=O` (centres unmarked) [Example 11] showed an inhibition at 10 µg/mL of 79%. In the case of `COC1/C=C\C=C(/C)C(=O)NC2=CC(=O)C(NCCCCN)=C(CC(C)CC(OC)C(O)C(C)/C=C(\C)C1OC(N)=O)C2=O` (centres unmarked) [Example 21], the inhibition at 10 µg/mL is reported as 53%. For `COC1/C=C\C=C(/C)C(=O)NC2=CC(=O)C(NC3CCCC3)=C(CC(C)CC(OC)C(O)C(C)/C=C(\C)C1OC(N)=O)C2=O` (centres unmarked) [Example 14], the inhibition at 10 µg/mL was 97%.

Same assay, conditions: concentration 1 μg/ml; 48 hours after addition of sample; W-2K-11 cells
With “17-demethoxy-17,19-bisdimethylamino-Geldenamycin [Example 35]” the “Percent inhibition (%)” value was 92%.

Same assay, conditions: concentration 5 μg/ml; 48 hours after addition of sample; W-2K-11 cells
For `CO[C@H]1/C=C\C=C(/C)C(=O)NC2=CC(=O)C(NCCN3CCCCC3)=C(C[C@@H](C)C[C@H](OC)[C@H](O)[C@@H](C)/C=C(\C)[C@@H]1OC(N)=O)C2=O` [Example 27], the “Percent inhibition (%)” value was 57%.

Same assay, conditions: concentration 10 μg/ml; 48 hours after addition of sample; W-2K-11 cells
“17-demethoxy-17,19-bisdimethylamino-Geldenamycin [Example 35]” was tested, and the “Percent inhibition (%)” value was 97%.
